Patent US8377886B2, “Use of gamma secretase inhibitors and notch pathway inhibitors for treatment and prevention of renal disease” (Albert Einstein College of Medicine of Yeshiva University, priority 2007, dated 2013)

Assays:
[1] = system: p53; experiment: TGFβ induced phosphorylated p53 levels in podocytes, Western blot; assay type: cell-based, mouse; conditions: after 4 hrs of incubation with TGFβ
Description: (§1) Infection of Podocytes. Cultivation of conditionally immortalized mouse podocytes was performed as described^41. Briefly, cells were propagated in the undifferentiated state on type1 collagen at 33° C. in RPMI 1640 in the presence of 10% FBS (Hyclone) and 20 U/ml interferon γ (Sigma Chemical Co., St Louis, Mo.). To induce differentiation, cells were maintained at 37° C. without interferon for 10 days. Podocytes were infected with MIGR-ICN1-EGFP (kind gift of Dr Warren Pear, University of Pennsylvania) or pBMN-EGFP (Orbigen) retrovirus. Briefly vectors were transfected into Phoenix Eco packaging cells (Orbigen) and supernatant was harvested 60-72 hrs after transfection. Podocytes were infected with virus containing supernatant (3-4 times, every 6 hours) in the presence of polybrene […]. After 24 hrs of infection, the medium was changed and cells were either treated with tamoxifen to induce ICN1 expression or left untreated. Infection efficiency was estimated under fluorescence microscope by the presence of GFP positive cells as it ranged from 70-80%.
(§2) Western Blotting. Cells were lysed in RIPA buffer in the presence of protease and phosphatase inhibitors; equal amount (30 μg) of protein was loaded on 10% SDS gels. Gels were transferred to PVDF membranes (Bio-Rad), blocked in 5% milk and incubated with the primary antibody (1:1,000 dilution) overnight at 4° C. in 1% milk. […]

[2] = system: PAN treated rats; experiment: PAN induced nephrotic syndrome in rats; assay type: in vivo, rat
Description: Male Sprague Dawley rats (75-100 gr˜4 weeks old) were purchased from Charles Rivers. Animals were injected with puromycin aminonucleoside 20 mg/kg ip ×1. BDZ (dissolved in Methocell, Tween-80) was administered ip 500 μg/100 gr rat once a day. Animals were sacrificed on day 8 after PAN administration.
Phenotypic analysis. Albuminuria was determined using Mouse or Rat Albumin specific ELISA kits (Exocell and Bethyl Laboratories) and urine creatinine was determined using Creatinine companion (Exocell), following manufacturer's protocol.
Histologic analysis. Histologic analysis was performed on formalin fixed paraffin embedded kidney sections that was stained with Periodic-Acid-Schiff (PAS) or Gomori Trichrome. Slides were examined and pictures were taken with Nikon Eclipse TE300 microscope and SPOT Diagnostic CCD camera. Transmission electron microscopy was performed in the Analytical Imaging Facility at AECOM on glutaraldehyde fixed, epoxy embedded kidney samples stained with uranyl acetate and lead citrate. Samples were evaluated using JEOL 1200EX, electron microscope (AECOM, Analytical Imaging Facility).
Immunohistochemistry. Immunohistochemistry was performed on formalin fixed paraffin embedded kidney sections using the following primary antibodies Val^1744ICN1 (Abcam), ICN2 (Abeam). Staining was visualized using peroxidase conjugated anti mouse of anti rabbit Vectastain Elite kit and DAB (Vector Labs). Terminal d-UTP labeling (TUNEL) staining was performed using TUNEL kit (Chemicon) following manufacturer's instructions. For fluorescent labeling, 5 μm frozen sections were fixed in ice cold acetone, blocked with 10% horse serum and incubated with primary antibodies, WT-1 (Santa Cruz), nephrin (kind gift of Dr Lawrence Holzman, University of Michigan), synaptopodin and podocin (Sigma-Aldrich), p21 (Santa Cruz), and developed using FITC conjugated anti-mouse secondary antibody or Cy3 conjugated anti-rabbit antibodies (Jackson laboratory) and mounted with Fluoromount).
Glomerular isolation. Glomerular isolation was performed using serial sieving of 120, 100 and 71 μm diameter.
QRT-PCR. RNA was prepared from isolated glomeruli or from podocytes using RNAeasy Mini kit (Qiagen, Valencia). The quality was analyzed on agarose gels and the quantity was measured on NanoDrop. 1 ug RNA was reverse transcribed using cDNA Archival Kit (Applied Biosystems). QRT-PCR analysis was performed using ABI 7900HT-Sequence Detection System. SYBR Green Master Mix and 3-step standard cycling conditions and sequence specific primers for QRT-PCR analysis were used. Melting curve was examined to verify that a single product was amplified. For quantitative analysis all samples were normalized to ubiquitin C and HPGRT gene expression using the ΔΔCT value method.
It was examined whether the Notch pathway inhibition (with the use of a gamma-secretase inhibitor) could be used as a potential strategy for the treatment of albuminuric glomerular disease^31. Rats we treated with DBZ 500 μg/100 gr ip. daily stating 12 hrs prior to PAN injection. Animals were sacrificed on day 8 as the PAN treated rats appeared moribund and most of them had severe nephrotic syndrome (ascites and edema). DBZ treatment normalized the Notch pathway gene expression increase of PAN treated rats (FIG. 1e, FIG. 12a). […] Similarly, expression of p53 and p21 was lower in BDZ treated rats compared to PAN only injected animals (FIG. 110.

[3] = system: unilateral ureteral obstruction model; experiment: Unilateral ureteral obstruction model of renal tubulointerstitial fibrosis; assay type: in vivo, mouse; conditions: animals injected with GSI XX (DBZ)
Description: Increased Notch pathway gene expression was also observed in mouse models of chronic tubulointerstitial fibrosis (unilateral ureteral obstruction) and in patients with chronic renal disease and tubulointerstitial fibrosis. […] The role and regulation of Notch pathway genes were also examined in other models of tubulointerstitial fibrosis. […] To examine the role of Notch activation in this model, animals were injected with GSI XX (DBZ). DBZ reduced the expression of Notch target gene HeyL and reduced expression of pro-fibrotic genes collagen, fibronectin and alpha smooth muscle action.

[4] = system: ICN1; experiment: TGFβ induced increase of ICN1 levels in cultured podocytes, Western blot; assay type: cell-based, mouse; conditions: 5 ng/ml TGFβ; 100 nM GSI XX; 10 μM SB203580, PD or LY; GSI IX and GSI X data not shown
Description: as §1
Western Blotting. Cells were lysed in RIPA buffer in the presence of protease and phosphatase inhibitors; equal amount (30 μg) of protein was loaded on 10% SDS gels. Gels were transferred to PVDF membranes (Bio-Rad), blocked in 5% milk and incubated with the primary antibody (1:1,000 dilution) overnight at 4° C. in 1% milk. Membranes were incubated with HRP conjugated anti-mouse or anti-rabbit secondary antibody (Jackson Immunologicals) for 1 hr at room temperature and developed using ECL method (Pierce). The following primary antibodies were used in this study; phospho-p38 (#4631), total p38 (#9217), phospho-AKT (#4051), total AKT (#9272), cleaved PARP, cleaved caspase3, phospho-53 were from Cell Signaling, phospho-JNK, p53, p21 were from Santa Cruz Val^1744ICN1 and β-actin antibody was purchased from Abcam (Cambridge, Mass.).

[5] = system: podocytes; experiment: TGFβ induced podocyte apoptosis, annexinV positive cell number; assay type: cell-based, mouse; conditions: 24 hrs following TGFβ; pre-incubation GSIXX 1 μM or pifithrinα 15 μM
Description: as §1
AnnexinV staining. AnnexinV staining was performed using AnnexinV-Alexa 568 staining kit (Roche). […] Cells were washed, and fluorescent labeled cells were counted. Total number of cells were counted by DAPI counterstain. Nuclear condensation was assessed by DAPI staining.

[6] = system: FA-treated mice; experiment: Murine folic acid (FA)-induced nephrotoxicity model; assay type: in vivo, mouse; conditions: FA mice treated for 1 week with DBZ
Description: Experiments were conducted using the murine folic acid (FA)-induced nephrotoxicity model, which is characterized by acute tubular injury followed by both tubular regeneration and chronic changes such as patchy interstitial fibrosis. Strong upregulation was found for mRNA levels of Notch 1-4, the ligands Jagged 1 and 2, delta like-1 and -4, and the downstream target genes Hes1, Hey1, and HeyL in total kidney homogenates 1 day after FA injection, which remained increased up to 1 week.
To further investigate the role of Notch in FA-induced renal injury, mice were treated for 1 week with the gamma-secretase inhibitor (GSI) dibenzazepine (DBZ) that blocks activation of the Notch pathway by interfering with Notch cleavage. […] In control kidneys, large numbers of interstitial fibroblasts and significant tubulointerstitial fibrosis were observed indicating a misdirected renal regeneration.

[7] = system: podocytes; experiment: ICN1 induced podocyte apoptosis, AnnexinV staining; assay type: cell-based, mouse; conditions: for ICN1 induced increase in annexinV positive cell number: tamoxifen 1.5 μM, counted 24 hrs after induction, GSIXX 4 μM, pifithrin-alpha 15 μM
Description: as §1
AnnexinV staining. AnnexinV staining was performed using AnnexinV-Alexa 568 staining kit (Roche). Cells were cultured in 24 well plates, washed and incubated with AnnexinV-Alexa 568 in incubation buffer according to manufacturer's instruction. Cells were washed, and fluorescent labeled cells were counted. Total number of cells were counted by DAPI counterstain. Nuclear condensation was assessed by DAPI staining.

[8] = system: Smad3 and Akt phosphorylation; experiment: TGFβ induced Smad3 and Akt phosphorylation in podocytes, Western blot; assay type: cell-based, mouse; conditions: 5 ng/ml TGFβ; GSI XX 1 μM
Description: as §1, §2

[9] = system: Balb/c mice; experiment: Adriamycin (doxorubicin) induced nephrotic syndrome of mice; assay type: in vivo, mouse; conditions: male Balb/c mice, 12 days following 12 mg/kg doxorubicin (adriamycin); doxorubicin only 2659 μg/mg creatinine
Description: Adriamycin-induced nephrotic syndrome was induced in 8 weeks old male Balb/c mice (n=10/per each groups) via intravenous injection (to the tail vein) of 12 mg/kg adriamycin. Animals were sacrificed 12 days following the injection. All animal studies were approved by the Animal Care Committee at the Albert Einstein College of Medicine (AECOM). Animals were maintained under specific pathogen free conditions. Phenotypic analysis. Albuminuria was determined using Mouse or Rat Albumin specific ELISA kits (Exocell and Bethyl Laboratories) and urine creatinine was determined using Creatinine companion (Exocell), following manufacturer's protocol.

[10] = system: p21; experiment: TGFβ induced p21 protein expression in podocytes, Western blot; assay type: cell-based, mouse; conditions: after 24 hrs TGFβ
Description: as §1, §2

[11] = PAN rats, DBZ 500 μg/100 gr ip daily

Q: Which “TGFβ induced increase of phosphorylated p53 levels” value [1] does the source give for `C[C@H](NC(=O)Cc1cc(F)cc(F)c1)C(=O)N[C@@H]1C(=O)N(C)c2ccccc2-c2ccccc21` [DBZ, (S,S)-2-[2-(3,5-Difluorophenyl)acetylamino]-N-(5-methyl-6-oxo-6,7-dihydro-5H-dibenzo[b,d]azepin-7-yl)propionamide] here?
A: fully sensitive

Q: What about the “Notch pathway gene expression increase of PAN treated rats” value ([2]; DBZ 500 μg/100 gr ip daily from 12 hrs prior to PAN, QRT-PCR) of the same compound?
A: normalized

Q: What about the “albuminuria (albumin/creatinine ratio)” value ([2]; PAN rats, 500 μg/100 gr ip daily, compared to PAN only, after 6 days) of the same compound?
A: significantly less

Q: And the “foot process effacement (EM analysis)” value [2, 11]?
A: almost fully abrogated

Q: What about the “podocyte apoptosis (TUNEL staining)” value [2, 11] of the same compound?
A: fully prevented

Q: What about the “decrease in nephrin and podocin levels (mRNA and protein)” value ([2]; PAN rats, DBZ 500 μg/100 gr ip daily, day 8) of the same compound?
A: protected

Q: And the “expression of p53 and p21” value ([2]; PAN rats, whole kidney lysates QRT-PCR, compared to PAN only)?
A: lower

Q: And the “expression of Notch target gene HeyL” value [3]?
A: reduced

Q: What about the “expression of pro-fibrotic genes collagen, fibronectin and alpha smooth muscle action” value [3] of the same compound?
A: reduced

Q: And the “tubulointerstitial fibrosis (evaluated on PAS staining)” value [3]?
A: reduced

Q: What about the “TGFβ induced increase of ICN1 levels” value [4] of the same compound?
A: fully sensitive

Q: And the “TGFβ induced increase in annexinV positive cell number” value [5]?
A: prevented

Q: And the “FA-induced upregulation of fibrotic remodeling genes (TGF-β, fibronectin, MMP-2 and 9)” value [6]?
A: greatly reduced

Q: And the “increase in serum creatinine” value [6]?
A: did not affect

Q: And the “rate of tubular apoptosis” value [6]?
A: did not affect

Q: What about the “rise in HeyL expression” value [6] of the same compound?
A: completely blunted

Q: What about the tubular damage scores [6] of the same compound?
A: did not affect

Q: What about the “ICN1 induced increase in annexinV positive cell number” value (“ICN1 induced increase” for short) ([7]; listed as GSI XX) of the same compound?
A: did not alter

Q: And the “ICN1 induced increase” value ([7]; listed as GSIXX)?
A: did not affect

Q: And the “TGFβ induced Smad3 and Akt phosphorylation” value [8]?
A: did not interfere

Q: What about the albuminuria [9] of the same compound?
A: 800 μg/mg creatinine

Q: Z-vad was tested. Which “ICN1 induced apoptosis (AnnexinV/GFP positive cells)” value ([7]; podocytes with tamoxifen-induced ICN1, pretreatment with Z-vad (10 μM) or Z-LEHD (10 μM)) did it give?
A: prevented

Q: With `C[S+]([O-])c1ccc(-c2nc(-c3ccncc3)c(-c3ccc(F)cc3)[nH]2)cc1` (stereo not drawn) [SB203580] as the compound, how does the “TGFβ induced increase of ICN1 levels” value [4] read?
A: not sensitive

Q: What about the “ICN1 induced increase” value [7] of the same compound?
A: did not alter

Q: `Cc1ccc(C(=O)Cn2c3c(sc2=N)CCCC3)cc1` [pifithrin alpha] was tested. Which “TGFβ induced increase in p21 protein expression” value [10] did it give?
A: blocked

Q: And the “TGFβ induced increase in annexinV positive cell number” value [5]?
A: prevented

Q: What about the “ICN1 induced increase” value [7] of the same compound?
A: decreased

Q: `CC(C)C[C@H](NC(=O)[C@H](Cc1ccccc1)C[C@@H](O)[C@H](Cc1ccccc1)NC(=O)OC(C)(C)C)C(=O)N[C@@H](Cc1ccccc1)C(N)=O` [GSI X, {1S-Benzyl-4R-[1-(1S-carbamoyl-2-phenethylcarbamoyl)-1S-3-methylbutylcarbamoyl]-2R-hydroxy-5-phenylpentyl}carbamic Acid tert-butyl Ester] was tested. Which “TGFβ induced increase of ICN1 levels” value [4] did it give?
A: fully sensitive

Q: For `COc1cccc(-c2cc(=O)c3ccccc3o2)c1N` [PD98059], which “TGFβ induced increase of ICN1 levels” value [4] is on record?
A: not sensitive

Q: For `C[C@H](NC(=O)Cc1cc(F)cc(F)c1)C(=O)N[C@H](C(=O)OC(C)(C)C)c1ccccc1` [GSI IX, N—[N-(3,5-Difluorophenacetyl-L-alanyl)]-S-phenylglycine t-Butyl Ester], which “TGFβ induced increase of ICN1 levels” value [4] is on record?
A: fully sensitive
